# Columns and labels:
# Oral availability = conditions: in vivo
# VLA-4 [1] = target: T1, VLA-4 (Homo sapiens, UniProt P05556+P13612); experiment: Purified VLA-4 Protein/Protein Assay with VCAM-Ig-AP; assay type: binding; parameters: endogenous in cells; host or cells: Jurkat (human T cell line)
# Protocol: VLA-4 was purified from a detergent extract of a high expressing subclone of α4-transfected K562 cells by antibody affinity chromatography and immobilized on microtiter wells to establish a protein/protein competitive binding assay. VCAM-Ig-AP was bound to the purified VLA-4-coated plate in the absence or presence of oMePUPA-V (Lot #2) and 1 mM MnCl2. Plates were read at 405 nm and the data were analyzed using SoftMax v. 2.32 software.
# human ACE = target: T2, human ACE (Homo sapiens, UniProt P12821); experiment: ACE protease activity (Cerep, HUVEC, 3H-HGG conversion); assay type: biochemical
# T2 construct: The source of ACE proteases was human endothelial cells (HUVEC); host or cells: HUVEC (human endothelial cells)
# T2 sequence (P12821 30-1306): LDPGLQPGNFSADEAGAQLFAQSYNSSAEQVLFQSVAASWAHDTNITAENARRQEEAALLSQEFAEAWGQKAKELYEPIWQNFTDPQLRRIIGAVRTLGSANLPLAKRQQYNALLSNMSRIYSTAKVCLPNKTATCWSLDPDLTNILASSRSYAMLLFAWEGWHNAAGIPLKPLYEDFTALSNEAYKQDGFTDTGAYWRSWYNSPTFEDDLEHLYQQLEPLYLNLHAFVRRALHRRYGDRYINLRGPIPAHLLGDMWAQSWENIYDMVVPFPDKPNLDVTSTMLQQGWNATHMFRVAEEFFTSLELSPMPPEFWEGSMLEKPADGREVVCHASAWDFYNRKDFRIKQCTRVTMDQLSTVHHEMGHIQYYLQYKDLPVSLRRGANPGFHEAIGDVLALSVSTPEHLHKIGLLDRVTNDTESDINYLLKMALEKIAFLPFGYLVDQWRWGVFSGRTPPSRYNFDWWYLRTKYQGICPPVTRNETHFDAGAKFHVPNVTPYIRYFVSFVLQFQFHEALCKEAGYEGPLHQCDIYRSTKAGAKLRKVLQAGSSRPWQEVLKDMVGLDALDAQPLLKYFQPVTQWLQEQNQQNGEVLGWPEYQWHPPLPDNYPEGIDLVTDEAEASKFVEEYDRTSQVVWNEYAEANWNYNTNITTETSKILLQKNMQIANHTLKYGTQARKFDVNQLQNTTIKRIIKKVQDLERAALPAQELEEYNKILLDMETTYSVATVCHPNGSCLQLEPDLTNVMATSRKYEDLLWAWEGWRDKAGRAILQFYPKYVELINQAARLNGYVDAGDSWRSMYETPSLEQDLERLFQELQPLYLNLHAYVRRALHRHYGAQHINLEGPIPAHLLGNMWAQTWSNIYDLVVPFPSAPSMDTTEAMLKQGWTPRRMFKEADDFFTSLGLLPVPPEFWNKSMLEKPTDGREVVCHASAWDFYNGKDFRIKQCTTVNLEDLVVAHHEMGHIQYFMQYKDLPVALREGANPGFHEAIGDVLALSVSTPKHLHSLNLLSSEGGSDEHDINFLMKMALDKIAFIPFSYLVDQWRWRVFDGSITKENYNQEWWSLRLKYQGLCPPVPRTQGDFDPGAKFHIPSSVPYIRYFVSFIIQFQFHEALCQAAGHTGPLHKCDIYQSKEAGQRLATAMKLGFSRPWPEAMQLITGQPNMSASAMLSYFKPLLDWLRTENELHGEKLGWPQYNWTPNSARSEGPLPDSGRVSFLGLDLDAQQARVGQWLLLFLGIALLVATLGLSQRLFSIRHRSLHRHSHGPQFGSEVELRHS
# Description: The source of ACE proteases was human endothelial cells (HUVEC). ^3H-HGG, added to HUVEC, was converted to ^3H-hippuric acid and glycylglycine by ACE.
# [2] = system: mouse contact hypersensitivity; experiment: DNFB contact hypersensitivity model, ear swelling; assay type: in vivo, mice; conditions: 0.03 or 0.3 mg/kg enterally 4 hours after DNFB challenge, measured 24 hours after challenge
# Protocol: Twenty gram female virus-free Balb/c mice (Jackson Laboratories, Bar Harbor, Me.) housed four to a cage in microisolator cages in Biogen's virus-free animal facility and receiving ad libitum mouse chow and tap water were used for all studies. Mice were anesthetized with ketamine:xylazine (90:10 mg/kg, i.p.). A 3 cm^2 patch of abdominal skin, xiphoid to pubis was exposed by closely shaving the far and the skin was scrubbed with 70% ethanol. A 25 μL volume of 0.5% DNFB in 4:1 v/v acetone:olive oil vehicle is uniformly applied to the bare abdominal skin. The skin was lightly scratched with the applying pipette tip to encourage mild inflammation. […] Twenty four hours after challenge, mice were again anesthetized with ketamine:xylazine and the ear thickness of both ears measured with an engineer's micrometer to an accuracy of 10^−4 inches.
# Compounds (100 μL) or appropriate vehicle (Dimethylsulfoxide [DMSO] in isotonic phosphate buffered saline [PBS], 100 μL) were administered orally by gavage 4 hours after challenging the immune response on Day 5. […] The ear swelling response for each mouse was calculated as the difference between its vehicle- and DNFB-challenged ear thickness at 24 hours after challenge. […] Inhibition of the ear swelling response was determined by comparison of treated groups with their vehicle control group. […] Values are expressed as means ± standard error of the mean (SEM).
# [3] = Proteolytic stability, in vitro metabolism and in vivo PK studies; assay type: in vitro ADME; conditions: in vitro metabolism studies and in vivo PK studies in rat, dog and sheep
# [4] = Formulated / solution stability (HPLC); assay type: physicochemical
# [5] = Bulk / drug substance stability (HPLC); assay type: physicochemical
# Protocol: At four weeks, one or two degradation peaks became detectable at 40° C. and 50° C., but the level of each impurity peak was still less than 0.02%.
# α4β1 = target: T3, α4β1 (Homo sapiens, UniProt P05556+P13612); experiment: LIBS induction on Jurkat cells with antibody 9EG7 (FACS); assay type: cell-based; conditions: 2 mM Mg+2 buffer, read-out: EC50 of LIBS epitope induction
# T3 construct: endogenous in cells; host or cells: Jurkat (human T cell line)
# T3 sequence (P13612 34-1032): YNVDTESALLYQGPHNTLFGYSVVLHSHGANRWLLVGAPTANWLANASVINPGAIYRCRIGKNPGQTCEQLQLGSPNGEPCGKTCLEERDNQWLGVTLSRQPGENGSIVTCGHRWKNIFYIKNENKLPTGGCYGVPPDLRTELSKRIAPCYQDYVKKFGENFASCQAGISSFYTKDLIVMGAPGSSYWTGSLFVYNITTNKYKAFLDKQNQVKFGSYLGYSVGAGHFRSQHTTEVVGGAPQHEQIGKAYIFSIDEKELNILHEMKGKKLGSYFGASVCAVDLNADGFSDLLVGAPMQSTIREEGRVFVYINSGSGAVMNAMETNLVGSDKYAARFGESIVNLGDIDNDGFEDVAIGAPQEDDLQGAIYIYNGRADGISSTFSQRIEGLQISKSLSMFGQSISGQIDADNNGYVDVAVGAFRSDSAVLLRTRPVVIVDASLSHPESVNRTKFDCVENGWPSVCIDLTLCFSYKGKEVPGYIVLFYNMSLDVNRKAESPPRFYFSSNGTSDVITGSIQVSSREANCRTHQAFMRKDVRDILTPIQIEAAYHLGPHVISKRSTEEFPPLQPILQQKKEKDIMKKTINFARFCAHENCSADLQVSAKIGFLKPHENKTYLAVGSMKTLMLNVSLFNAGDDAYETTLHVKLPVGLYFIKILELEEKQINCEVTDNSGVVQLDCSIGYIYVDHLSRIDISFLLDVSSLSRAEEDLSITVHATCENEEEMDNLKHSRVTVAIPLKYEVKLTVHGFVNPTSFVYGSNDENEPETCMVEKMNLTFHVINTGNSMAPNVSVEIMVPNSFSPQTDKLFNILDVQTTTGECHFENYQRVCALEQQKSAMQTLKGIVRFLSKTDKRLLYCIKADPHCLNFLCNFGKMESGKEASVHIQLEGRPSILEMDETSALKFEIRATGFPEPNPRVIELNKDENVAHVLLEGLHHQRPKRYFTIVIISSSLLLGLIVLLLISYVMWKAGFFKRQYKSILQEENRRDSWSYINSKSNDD
# T3 sequence (P05556 21-798): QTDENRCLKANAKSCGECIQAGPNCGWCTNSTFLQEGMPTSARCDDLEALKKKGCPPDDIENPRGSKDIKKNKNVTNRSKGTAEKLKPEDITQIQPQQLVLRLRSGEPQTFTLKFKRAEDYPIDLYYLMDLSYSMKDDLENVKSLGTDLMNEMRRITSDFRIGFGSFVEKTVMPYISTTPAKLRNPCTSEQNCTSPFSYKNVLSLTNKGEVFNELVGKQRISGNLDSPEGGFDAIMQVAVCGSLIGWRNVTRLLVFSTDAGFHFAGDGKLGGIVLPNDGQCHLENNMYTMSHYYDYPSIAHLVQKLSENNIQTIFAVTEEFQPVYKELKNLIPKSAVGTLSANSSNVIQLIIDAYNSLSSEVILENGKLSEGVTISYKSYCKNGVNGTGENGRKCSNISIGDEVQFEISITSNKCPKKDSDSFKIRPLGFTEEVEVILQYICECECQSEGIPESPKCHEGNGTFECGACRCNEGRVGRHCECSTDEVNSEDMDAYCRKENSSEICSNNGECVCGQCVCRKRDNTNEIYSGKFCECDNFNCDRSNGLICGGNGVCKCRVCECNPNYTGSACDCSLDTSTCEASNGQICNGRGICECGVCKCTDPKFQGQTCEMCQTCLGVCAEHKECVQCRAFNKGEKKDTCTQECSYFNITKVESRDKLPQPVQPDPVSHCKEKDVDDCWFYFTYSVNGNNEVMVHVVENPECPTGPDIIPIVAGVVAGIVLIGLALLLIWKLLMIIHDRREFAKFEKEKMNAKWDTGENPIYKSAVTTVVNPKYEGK
# Protocol: Jurkat cells (2×10^5/well) were preincubated at 37° C. for 20 minutes with TRIS-buffered saline containing 2 mM MgCl2 (Mg^+2-TBS) alone or with serial dilutions of test compounds. The samples were transferred to an ice bath and supplemented with LIBS antibody, 9EG7, at a final concentration of 10 μg/ml. The cells were washed twice with Mg^+2-TBS and resuspended in a 1:200 dilution of a FITC conjugated-goat anti-rat IgG in Mg^+2-TBS and incubated for 30 min at 4° C. The cells were washed twice and resuspended in Mg^+2-TBS. Mean fluorescence intensity (MFI) was determined by FACS analysis (Becton Dickinson FACScan). Results are expressed as MFI. Data were analyzed by Microsoft Excel v5.0 and Deltagraph v4.0 software.
# [6] = system: panel of radioligand, enzyme, and functional assays; experiment: Panlabs ProfilingScreen, DiscoveryScreen, Immunoscreen and Cerep membrane receptor panel
# Protocol: oMePUPA-V was tested in the Panlabs ProfilingScreen, DiscoveryScreen, and Immunoscreen panel of radioligand, enzyme, and functional assays and in the Cerep membrane receptor panel.
# VLA-4 [7] = target: T1, VLA-4; experiment: VCAM-Ig Competitive Binding Assay on human PBLs; parameters: endogenous in cells; conditions: Mn+2
# Description: PBLs, were isolated from peripheral blood of humans, sheep and dogs using methods described for sheep PBL (Abraham, W. M. et al. J. Clin. Invest. 93:776-787, 1994). The VCAM-Ig-AP Competitive Binding Assay was used to compare the binding of oMePUPA-V to these different cell types.
# T1 sequence (P13612 34-1032): as the sequence (P13612 34-1032) above
# T1 sequence (P05556 21-798): as the sequence (P05556 21-798) above
structure (smiles),measurement,setting,value
Cc1ccccc1NC(=O)Nc1ccc(CC(=O)N2CCC[C@H]2C(=O)N[C@H](C)CC(=O)O)cc1 [oMePUPA-V],Oral availability,Oral availability,<1%
same,IC50,"VLA-4 [1]; 1 mM MnCl2, read-out: IC50, Purified VLA-4 VCAM-Ig binding",0.1 nM
same,potency on isolated VLA-4 relative to Jurkat cells in the binding assay,VLA-4 [1]; in the presence of Mn+2,80 fold
same,ACE activity,human ACE,clean
same,inhibition of human ACE protease activity,"human ACE; at 10 μM, HUVEC",no inhibition
same,inhibition of ear swelling response (in words),[2],significantly inhibited
same,proteolytic stability,[3],proteolytically stable
same,"Formulated stability (40° C.), time stable",[4],stable >4 wk
same,"Bulk stability (40° C., 75% RH), time stable",[5],stable >4 wk
same,EC50,α4β1,~20 nM
same,In vitro pharma screen 85 tests,[6],clean
same,activity in Panlabs and Cerep panels,[6]; at 10 μM,No significant activity
same,IC50,VLA-4 [7],6 ± 1 nM

# Reference: patent publication US6495525B1, “VLA-4 inhibitor: oMePUPA-V” (Biogen, Inc., priority 1998, dated 2002)
